Results on 15 compounds are retold here after US12187713B2, “Immunomodulators, compositions and methods thereof” (Betta Pharmaceuticals Co., Ltd, priority 2019, dated 2025).

SMILES strings stand for the structures. pIC50: −log10 of the molar value.

For one data set, the target named is PD-1/PD-L1 (Homo sapiens (Human), UniProt Q9NZQ7). Nature of the data set: PD-1/PD-L1 Binding Assay (Alphascreen). In outline: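 PD-1/PD-L1 binding detected by anti-6×His acceptor and streptavidin donor beads after 120 min in the dark at 25 °C. Beforehand, the two proteins were incubated 15 min at 25 °C with inhibitor at 0.015–300 nM (1% DMSO). IC50 comes from a log concentration–response curve.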

A short description of data set [1]: Pharmacokinetic Assay, single oral dose 100 mg/kg (Table 11). The format is in vivo. The following applies: mouse, C57 female mice, oral (intragastric), plasma. How it is done: Adult C57 female mice were received to single-dose of the test compounds with […], 10% Kolliphor^@HS 15 and 80% saline as excipients, the mice (n=9) were giving oral administration (intragastric administration) with the compounds at a dose of 100 mg/kg. Time of blood collection: 15 min, 30 min, 1 h, 2 h, 4 h, 7 h, 24 h. Approximately 0.1 mL of whole blood was collected from retro-orbital venous plexus of 3 mice at each time point, and placed into tubes that contained K2-EDTA as an anticoagulant. The whole blood was centrifuged at 4° C. and 4000 rpm for 10 min. The plasma was transferred into centrifuge tubes, and stored at −20° C. until being analyzed. Concentrations of test compounds in the plasma samples were analyzed with liquid chromatography-tandem mass spectrometry (LC-MS/MS). Plasma concentration-time data of individual animals was analyzed using Microsoft Excel 2010. Non-compartmental model was introduced in concentration analysis. The pharmacokinetic parameters of the test compounds were calculated using WinNonlin (version 4.1; Pharsight) software.

Chain of PD-1/PD-L1 (Q9NZQ7 19-238): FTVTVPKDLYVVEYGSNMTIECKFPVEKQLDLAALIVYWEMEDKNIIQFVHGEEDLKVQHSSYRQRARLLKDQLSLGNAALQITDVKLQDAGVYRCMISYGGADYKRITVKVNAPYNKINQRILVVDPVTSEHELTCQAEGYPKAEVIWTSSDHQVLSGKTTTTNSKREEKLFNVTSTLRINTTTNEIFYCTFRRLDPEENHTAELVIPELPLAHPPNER

Usually pIC50 stands for the IC50 on a negative log10 scale, so that one unit is a factor of ten. Low values mean a high IC50, high ones a low IC50. In general, AUC refers to concentration integrated over time. In general, Cmax refers to the peak of the concentration-time curve. What is called Tmax is the time at which the peak concentration occurs. The term half-life denotes how long it takes for the measured level to halve. On to `Cc1c(-c2nc3cc(CN4CCC4)c(OC(F)F)cc3o2)cccc1-c1cccc(-c2nc3cc(CN4CCC[C@H]4C(=O)O)c(OC(F)F)cc3o2)c1C` [Example 8, ((2-(3′-(5-(azetidin-1-ylmethyl)-6-(difluoromethoxy)benzo[d]oxazol-2-yl)-2,2′-dimethyl-[1,1′-biphenyl]-3-yl)-6-(difluoromethoxy)benzo[d]oxazol-5-yl)methyl)-L-proline], for which the pIC50 at PD-1/PD-L1 (numeric values) was 9.12. In data set [1], the AUC turned out to be 8.24 µg·h/mL, the peak level (Cmax) was 974 ng/mL, the Tmax was determined as 4 h and the half-life was 3.97 h.

On PD-1/PD-L1 (numeric values), `Cc1c(-c2nc3cc(CNC[C@H]4CCCO4)c(OC(F)F)cc3o2)cccc1-c1cccc(-c2nc3cc(CN4CCC[C@H]4C(=O)O)c(OC(F)F)cc3o2)c1C` [Example 29, ((6-(difluoromethoxy)-2-(3′-(6-(difluoromethoxy)-5-(((((R)-tetrahydrofuran-2-yl)methyl)amino)methyl)benzo[d]oxazol-2-yl)-2,2′-dimethyl-[1,1′-biphenyl]-3-yl)benzo[d]oxazol-5-yl)methyl)-L-proline] gave a pIC50 of 8.92. In data set [1], the AUC came to 42.7 µg·h/mL, the concentration peaked (Cmax) at 3720 ng/mL, the Tmax is 1 h and the half-life was 4.67 h.

Regarding `Cc1c(-c2nc3cc(CN4CCC[C@H]4C(=O)O)c(OC(F)F)cc3o2)cccc1-c1cccc(-c2nc3cc(CN4CC(C)(C)C4)cc(C(F)(F)F)c3o2)c1C` [Example 93, ((6-(difluoromethoxy)-2-(3′-(5-((3,3-dimethylazetidin-1-yl)methyl)-7-(trifluoromethyl)benzo[d]oxazol-2-yl)-2,2′-dimethyl-[1,1′-biphenyl]-3-yl)benzo[d]oxazol-5-yl)methyl)-L-proline], on PD-1/PD-L1 (range symbols), the pIC50 was 8.30 to 10.00. Also, in data set [1], the AUC stood at 163 µg·h/mL, the Cmax was found to be 9220 ng/mL and the Tmax was 4 h.

Regarding `Cc1c(-c2nc3c(o2)CCNC3)cccc1-c1cccc(-c2nc3cc(CN4CCC[C@H]4C(=O)O)c(OC(F)F)cc3o2)c1C` [Example 190, ((6-(difluoromethoxy)-2-(2,2′-dimethyl-3′-(4,5,6,7-tetrahydrooxazolo[4,5-c]pyridin-2-yl)-[1,1′-biphenyl]-3-yl)benzo[d]oxazol-5-yl)methyl)-L-proline], on PD-1/PD-L1 (numeric values), the pIC50 is 9.70. Besides, in data set [1], the AUC came out at 8.57 µg·h/mL, the highest level (Cmax) was 1280 ng/mL, the Tmax amounted to 1 h and the half-life was 3.57 h.

The compound `Cc1c(-c2nc3cc(CN4CC5(CC5)C4)c(OC(F)F)cc3o2)cccc1-c1cccc(-c2nc3cc(CN4CCC[C@H]4C(=O)O)c(OC(F)F)cc3o2)c1C` [Example 74, ((2-(3′-(5-((5-azaspiro [2.3]hexan-5-yl)methyl)-6-(difluoromethoxy)benzo[d]oxazol-2-yl)-2,2′-dimethyl-[1,1′-biphenyl]-3-yl)-6-(difluoromethoxy)benzo[d]oxazol-5-yl)methyl)-L-proline] gave a pIC50 on PD-1/PD-L1 (numeric values) of 8.96. Moreover, in data set [1], the AUC worked out at 59.5 µg·h/mL, the Cmax came out at 4460 ng/mL, the time of peak concentration (Tmax) is 4 h and the half-life was 8.2 h.

Consider `Cc1c(-c2nc3cc(CN(C)C)c(OC(F)F)cc3o2)cccc1-c1cccc(-c2nc3cc(CN4CCC[C@H]4C(=O)O)c(OC(F)F)cc3o2)c1C` [Example 16, ((6-(difluoromethoxy)-2-(3′-(6-(difluoromethoxy)-5-((dimethylamino)methyl)benzo [d]oxazol-2-yl)-2,2′-dimethyl-[1,1′-biphenyl]-3-yl)benzo[d]oxazol-5-yl)methyl)-L-proline], for which the negative-log IC50 (pIC50) on PD-1/PD-L1 (numeric values) is 8.96. In data set [1], the AUC turned out to be 20.9 µg·h/mL, the Cmax is 1470 ng/mL, the Tmax amounted to 4 h and the half-life is 4.8 h.

On PD-1/PD-L1 (range symbols), `Cc1c(-c2nc3cc(CN4CCC[C@H]4C(=O)O)c(OC(F)F)cc3o2)cccc1-c1cccc(-c2nc3cc(CN4CCC(C)C4)cc(C(F)(F)F)c3o2)c1C` (stereo partly drawn) [Example 88, ((6-(difluoromethoxy)-2-(2,2′-dimethyl-3′-(5-((3-methylpyrrolidin-1-yl)methyl)-7-(trifluoromethyl)benzo[d]oxazol-2-yl)-[1,1′-biphenyl]-3-yl)benzo[d]oxazol-5-yl)methyl)-L-proline] had a pIC50 of 8.30 to 10.00. In addition, in data set [1], the AUC is 2020 µg·h/mL, the peak level (Cmax) was 117000 ng/mL and the Tmax was 24 h.

The compound `Cc1c(-c2nc3cc(CN4CCCC4)ccc3o2)cccc1-c1cccc(-c2nc3cc(CN4CCC[C@H]4C(=O)O)c(OC(F)F)cc3o2)c1C` [Example 98, ((6-(difluoromethoxy)-2-(2,2′-dimethyl-3′-(5-(pyrrolidin-1-ylmethyl)benzo[d]oxazol-2-yl)-[1,1′-biphenyl]-3-yl)benzo[d]oxazol-5-yl)methyl)-L-proline] gave a pIC50 on PD-1/PD-L1 (range symbols) of 8.30 to 10.00. For the same compound, in data set [1], the AUC turned out to be 8.7 µg·h/mL, the concentration peaked (Cmax) at 1010 ng/mL, the Tmax was determined as 1 h and the half-life is 4.47 h.

In turn, `Cc1c(-c2nc3cc(CN4CCC[C@H]4C(=O)O)c(OC(F)F)cc3o2)cccc1-c1cccc(-c2nc3cc(CN4CCC[C@H]4C(=O)O)c(OC(F)F)cc3o2)c1C` [Example 2, (2′S)-(((2,2′-dimethyl-[1,1′-biphenyl]-3,3′-diyl)bis(6-(difluoromethoxy)benzo[d]oxazole-2,5-diyl))bis(methylene))di-L-proline] showed a pIC50 on PD-1/PD-L1 (numeric values) of 9.70. For the same compound, in data set [1], the AUC stood at 0.271 µg·h/mL, the peak level (Cmax) was 218 ng/mL, the Tmax was 0.5 h and the half-life was 3.3 h.

At PD-1/PD-L1 (numeric values), `Cc1c(-c2nc3cc(CN4CCC[C@H]4C(=O)O)c(OC(F)F)cc3o2)cccc1-c1cccc(-c2nc3cc(CN4CCCC4)c(OC(F)F)cc3o2)c1C#N` [Example 65, ((2-(2′-cyano-3′-(6-(difluoromethoxy)-5-(pyrrolidin-1-ylmethyl)benzo[d]oxazol-2-yl)-2-methyl-[1,1′-biphenyl]-3-yl)-6-(difluoromethoxy)benzo[d]oxazol-5-yl)methyl)proline] had a negative logarithm of the IC50 (pIC50) of 8.89. Moreover, in data set [1], the AUC stood at 40.4 µg·h/mL, the Cmax worked out at 2460 ng/mL, the Tmax is 4 h and the half-life is 10.7 h.

On to `Cc1c(-c2nc3cc(CNC4COC4)c(OC(F)F)cc3o2)cccc1-c1cccc(-c2nc3cc(CN4CCC[C@H]4C(=O)O)c(OC(F)F)cc3o2)c1C` [Example 28, ((6-(difluoromethoxy)-2-(3′-(6-(difluoromethoxy)-5-((oxetan-3-ylamino)methyl)benzo [d]oxazol-2-yl)-2,2′-dimethyl-[1,1′-biphenyl]-3-yl)benzo[d]oxazol-5-yl)methyl)-L-proline], for which the negative-log IC50 (pIC50) at PD-1/PD-L1 (numeric values) is 8.49. Further, in data set [1], the AUC was found to be 5.8 µg·h/mL, the Cmax was 1280 ng/mL, the Tmax came out at 1 h and the half-life is 2.79 h.

On to `Cc1c(Nc2nccc3cc(CN4CCC[C@@]4(C)C(=O)O)cnc23)cccc1-c1cccc(-c2nc3cc(CN4CCC[C@H]4C(=O)O)c(OC(F)F)cc3o2)c1C` [Example 171, (S)-1-((8-((3′-(5-(((S)-2-carboxypyrrolidin-1-yl)methyl)-6-(difluoromethoxy)benzo[d]oxazol-2-yl)-2,2′-dimethyl-[1,1′-biphenyl]-3-yl)amino)-1,7-naphthyridin-3-yl)methyl)-2-methylpyrrolidine-2-carboxylic acid], for which the pIC50 at PD-1/PD-L1 (range symbols) is 8.30 to 10.00. For the same compound, in data set [1], the area under the curve (AUC) was found to be 3.47 µg·h/mL, the peak level (Cmax) was 965 ng/mL, the Tmax is 1 h and the half-life was 3.66 h.

As to `Cc1c(-c2nc3cc(CN4CCC(C)C4)c(OC(F)F)cc3o2)cccc1-c1cccc(-c2nc3cc(CN4CCC[C@H]4C(=O)O)c(OC(F)F)cc3o2)c1C` (stereo partly drawn) [Example 61, ((6-(difluoromethoxy)-2-(3′-(6-(difluoromethoxy)-5-((3-methylpyrrolidin-1-yl)methyl)benzo[d]oxazol-2-yl)-2,2′-dimethyl-[1,1′-biphenyl]-3-yl)benzo[d]oxazol-5-yl)methyl)-L-proline], the pIC50 at PD-1/PD-L1 (numeric values) was 8.80. In data set [1], the AUC came to 118 µg·h/mL, the highest level (Cmax) was 8650 ng/mL, the Tmax was 4 h and the half-life is 5.37 h.

At PD-1/PD-L1 (numeric values), `Cc1c(-c2nc3c(o2)CCN(C)C3)cccc1-c1cccc(-c2nc3cc(CN4CCC[C@H]4C(=O)O)c(OC(F)F)cc3o2)c1C` [Example 314, ((6-(difluoromethoxy)-2-(2,2′-dimethyl-3′-(5-methyl-4,5,6,7-tetrahydrooxazolo[4,5-c]pyridin-2-yl)-[1,1′-biphenyl]-3-yl)benzo[d]oxazol-5-yl)methyl)-L-proline] gave a negative-log IC50 (pIC50) of 8.10. Moreover, in data set [1], the exposure (AUC) was 29 µg·h/mL, the Cmax was 6350 ng/mL, the Tmax was determined as 2 h and the half-life was 5.43 h.

As for `Cc1c(-c2nc3cc(CNC[C@@H]4CCCO4)c(OC(F)F)cc3o2)cccc1-c1cccc(-c2nc3cc(CN4CCC[C@H]4C(=O)O)c(OC(F)F)cc3o2)c1C` [Example 64, ((6-(difluoromethoxy)-2-(3′-(6-(difluoromethoxy)-5-(((((S)-tetrahydrofuran-2-yl)methyl)amino)methyl)benzo[d]oxazol-2-yl)-2,2′-dimethyl-[1,1′-biphenyl]-3-yl)benzo[d]oxazol-5-yl)methyl)-L-proline], the pIC50 on PD-1/PD-L1 (numeric values) is 8.74. Besides, in data set [1], the AUC came out at 61.5 µg·h/mL, the highest level (Cmax) was 4320 ng/mL, the Tmax was found to be 7 h and the half-life was 7.2 h.
